According to patent US20240158446A1, “CYCLIC COMPOUND HAVING SELECTIVE INHIBITORY ACTION ON KRAS OVER HRAS AND NRAS” (CHUGAI SEIYAKU KABUSHIKI KAISHA, priority 2021, published 2024):
Where a SMILES comes first, the peptide text is derived from it. Bridges are numbered along the chain shown (N, C = ends). [ ]: non-standard residue; d: D form. The star is where a group is joined. hPhe(3-Cl-4-CF3) = N[C@@H](CCc1ccc(C(F)(F)F)c(Cl)c1)C(=O)O; NPrPhe(4-CF3) = CCCN[C@@H](Cc1ccc(C(F)(F)F)cc1)C(=O)O; NMeGly(cPent) = CN[C@H](C(=O)O)C1CCCC1; Pro(4,4-Me2) = CC1(C)CN[C@H](C(=O)O)C1; Pro(4S-Me) = C[C@@H]1CN[C@H](C(=O)O)C1; Hyp = O=C(O)[C@@H]1C[C@@H](O)CN1; NMeD = CN[C@@H](CC(=O)O)C(=O)O; NMeL = CN[C@@H](CC(C)C)C(=O)O; Morpholide = C1CN(*)CCO1; NMeA = CN[C@@H](C)C(=O)O; Ac5c = NC1(C(=O)O)CCCC1; Aze = O=C(O)[C@@H]1CCN1; Ac4c = NC1(C(=O)O)CCC1; NEtG = CCNCC(=O)O; Sar = CNCC(=O)O

How the values were obtained:
[1] = biological target: GDP-bound KRAS wild-type protein (Homo sapiens, UniProt P01116); experiment: Binding to KRAS by surface plasmon resonance (SPR), Single Cycle Kinetics; details: SPR Single Cycle Kinetics, GDP-bound KRAS wild-type protein, 1:1 binding model; read-out: KRAS KD
Chain of GDP-bound KRAS wild-type protein (P01116 whole entry): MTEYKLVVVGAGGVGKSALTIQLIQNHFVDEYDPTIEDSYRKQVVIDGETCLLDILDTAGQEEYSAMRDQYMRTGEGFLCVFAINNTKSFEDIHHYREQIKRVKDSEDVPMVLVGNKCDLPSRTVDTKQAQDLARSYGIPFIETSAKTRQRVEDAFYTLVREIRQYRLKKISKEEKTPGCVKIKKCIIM

[2] = biological target: GDP-bound NRAS wild-type protein (Homo sapiens, UniProt P01111); experiment: Binding to NRAS by surface plasmon resonance (SPR), Single Cycle Kinetics; details: SPR, GDP-bound NRAS wild-type protein vs GDP-bound KRAS wild-type protein
Chain of GDP-bound NRAS wild-type protein (P01111 whole entry): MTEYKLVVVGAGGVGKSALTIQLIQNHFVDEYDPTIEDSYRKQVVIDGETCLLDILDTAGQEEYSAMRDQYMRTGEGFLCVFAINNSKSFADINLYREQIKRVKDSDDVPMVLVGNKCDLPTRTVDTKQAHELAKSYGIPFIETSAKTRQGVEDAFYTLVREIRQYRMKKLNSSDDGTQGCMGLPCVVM

[3] = biological target: GDP-bound HRAS wild-type protein (Homo sapiens, UniProt P01112); experiment: Binding to HRAS by surface plasmon resonance (SPR), Single Cycle Kinetics; details: SPR, GDP-bound HRAS wild-type protein vs GDP-bound KRAS wild-type protein
Chain of GDP-bound HRAS wild-type protein (P01112 whole entry): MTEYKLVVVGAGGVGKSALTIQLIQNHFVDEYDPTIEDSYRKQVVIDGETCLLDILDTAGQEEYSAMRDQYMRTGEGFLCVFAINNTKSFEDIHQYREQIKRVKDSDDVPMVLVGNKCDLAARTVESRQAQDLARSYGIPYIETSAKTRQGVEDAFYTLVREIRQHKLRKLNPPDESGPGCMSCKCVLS

Row | Compound | Kd [1] [pM] | NRAS/KRAS (ratio of KD value with respect to NRAS to KD value with respect to KRAS) [2] | HRAS/KRAS (ratio of KD value with respect to HRAS to KD value with respect to KRAS) [3]
1 | CCCN1C(=O)CN(C)C(=O)CN(C)C(=O)[C@H]([C@@H](C)CC)NC(=O)[C@H](CC(C)C)N(C)C(=O)C[C@@H](C(=O)N2CCOCC2)N(C)C(=O)[C@H](C2CCCC2)N(C)C(=O)C2(CCCC2)NC(=O)[C@@H]2C[C@H](C)CN2C(=O)[C@H](CCc2ccc(C(F)(F)F)c(Cl)c2)NC(=O)CN(C)C(=O)[C@@H]1Cc1ccc(C(F)(F)F)cc1 [PP0447] ([NMeL]I[Sar][Sar][NPrPhe(4-CF3)][Sar][hPhe(3-Cl-4-CF3)][Pro(4S-Me)][Ac5c][NMeGly(cPent)][NMeD]-Morpholide; lactam N-11) | 180 | B (a compound having 3 or more and less than 10 is denoted as B) | C (A compound having a KD ratio of 0.1 or more and less than 3 is denoted as C)
2 | CCCN1C(=O)CN(C)C(=O)CNC(=O)[C@H]([C@@H](C)CC)NC(=O)[C@H](CC(C)C)N(C)C(=O)C[C@@H](C(=O)N2CCOCC2)N(C)C(=O)[C@H](C2CCCC2)N(C)C(=O)C2(CCCC2)NC(=O)[C@@H]2CC(C)(C)CN2C(=O)[C@H](CCc2ccc(C(F)(F)F)c(Cl)c2)NC(=O)CN(C)C(=O)[C@@H]1Cc1ccc(C(F)(F)F)cc1 [PP0448] ([NMeL]IG[Sar][NPrPhe(4-CF3)][Sar][hPhe(3-Cl-4-CF3)][Pro(4,4-Me2)][Ac5c][NMeGly(cPent)][NMeD]-Morpholide; lactam N-11) | 150 | B (a compound having 3 or more and less than 10 is denoted as B) | C (A compound having a KD ratio of 0.1 or more and less than 3 is denoted as C)
3 | CCCN1C(=O)CN(C)C(=O)CNC(=O)[C@H]([C@@H](C)CC)NC(=O)[C@H](CC(C)C)N(C)C(=O)C[C@@H](C(=O)N2CCOCC2)N(C)C(=O)[C@H](C2CCCC2)N(C)C(=O)C2(CCCC2)NC(=O)[C@@H]2C[C@H](C)CN2C(=O)[C@H](CCc2ccc(C(F)(F)F)c(Cl)c2)NC(=O)CN(C)C(=O)[C@@H]1Cc1ccc(C(F)(F)F)cc1 [PP0449] ([NMeL]IG[Sar][NPrPhe(4-CF3)][Sar][hPhe(3-Cl-4-CF3)][Pro(4S-Me)][Ac5c][NMeGly(cPent)][NMeD]-Morpholide; lactam N-11) | 350 | C (A compound having a KD ratio of 0.1 or more and less than 3 is denoted as C) | C (A compound having a KD ratio of 0.1 or more and less than 3 is denoted as C)
4 | CCCN1C(=O)CN(C)C(=O)CN(CC)C(=O)[C@H]([C@@H](C)CC)NC(=O)[C@H](CC(C)C)N(C)C(=O)C[C@@H](C(=O)N2CCOCC2)N(C)C(=O)[C@H](C2CCCC2)N(C)C(=O)C2(CCCC2)NC(=O)[C@@H]2CC(C)(C)CN2C(=O)[C@H](CCc2ccc(C(F)(F)F)c(Cl)c2)NC(=O)CN(C)C(=O)[C@@H]1Cc1ccc(C(F)(F)F)cc1 [PP0450] ([NMeL]I[NEtG][Sar][NPrPhe(4-CF3)][Sar][hPhe(3-Cl-4-CF3)][Pro(4,4-Me2)][Ac5c][NMeGly(cPent)][NMeD]-Morpholide; lactam N-11) | 380 | B (a compound having 3 or more and less than 10 is denoted as B) | C (A compound having a KD ratio of 0.1 or more and less than 3 is denoted as C)

The next molecules have a lower Kd [1] than those just listed; values first:

Row | Kd [1] [pM] | Compound | NRAS/KRAS (ratio of KD value with respect to NRAS to KD value with respect to KRAS) [2] | HRAS/KRAS (ratio of KD value with respect to HRAS to KD value with respect to KRAS) [3]
5 | 31 | CCCN1C(=O)[C@@H]2CCN2C(=O)CN(C)C(=O)[C@H]([C@@H](C)CC)NC(=O)[C@H](CC(C)C)N(C)C(=O)C[C@@H](C(=O)N(C)C)N(C)C(=O)[C@H](C2CCCC2)N(C)C(=O)C2(CCCC2)NC(=O)[C@@H]2C[C@@H](OCC)CN2C(=O)[C@H](CCc2ccc(C(F)(F)F)c(Cl)c2)NC(=O)CN(C)C(=O)[C@@H]1Cc1ccc(C(F)(F)F)cc1 [PP0444] ([NMeL]I[Sar][Aze][NPrPhe(4-CF3)][Sar][hPhe(3-Cl-4-CF3)][Hyp](Et)[Ac5c][NMeGly(cPent)][NMeD]-NMe2; lactam N-11) | C (A compound having a KD ratio of 0.1 or more and less than 3 is denoted as C) | C (A compound having a KD ratio of 0.1 or more and less than 3 is denoted as C)
6 | 25 | CCCN1C(=O)[C@@H]2CCN2C(=O)CN(C)C(=O)[C@H]([C@@H](C)CC)NC(=O)[C@H](CC(C)C)N(C)C(=O)C[C@@H](C(=O)N(C)C)N(C)C(=O)[C@H](C2CCCC2)N(C)C(=O)C2(CCC2)NC(=O)[C@@H]2C[C@@H](OCC)CN2C(=O)[C@H](CCc2ccc(C(F)(F)F)c(Cl)c2)NC(=O)CN(C)C(=O)[C@@H]1Cc1ccc(C(F)(F)F)cc1 [PP0445] ([NMeL]I[Sar][Aze][NPrPhe(4-CF3)][Sar][hPhe(3-Cl-4-CF3)][Hyp](Et)[Ac4c][NMeGly(cPent)][NMeD]-NMe2; lactam N-11) | C (A compound having a KD ratio of 0.1 or more and less than 3 is denoted as C) | C (A compound having a KD ratio of 0.1 or more and less than 3 is denoted as C)
7 | 100 | CCCN1C(=O)CN(C)C(=O)CN(C)C(=O)[C@H]([C@@H](C)CC)NC(=O)[C@H](CC(C)C)N(C)C(=O)C[C@@H](C(=O)N2CCOCC2)N(C)C(=O)[C@H](C2CCCC2)N(C)C(=O)C2(CCCC2)NC(=O)[C@@H]2CC(C)(C)CN2C(=O)[C@H](CCc2ccc(C(F)(F)F)c(Cl)c2)NC(=O)CN(C)C(=O)[C@@H]1Cc1ccc(C(F)(F)F)cc1 [PP0446] ([NMeL]I[Sar][Sar][NPrPhe(4-CF3)][Sar][hPhe(3-Cl-4-CF3)][Pro(4,4-Me2)][Ac5c][NMeGly(cPent)][NMeD]-Morpholide; lactam N-11) | B (a compound having 3 or more and less than 10 is denoted as B) | C (A compound having a KD ratio of 0.1 or more and less than 3 is denoted as C)
8 | 73 | CCCN1C(=O)[C@@H]2CCN2C(=O)[C@H](C)N(C)C(=O)[C@H]([C@@H](C)CC)NC(=O)[C@H](CC(C)C)N(C)C(=O)C[C@@H](C(=O)N2CCOCC2)N(C)C(=O)[C@H](C2CCCC2)N(C)C(=O)C2(CCCC2)NC(=O)[C@@H]2CC(C)(C)CN2C(=O)[C@H](CCc2ccc(C(F)(F)F)c(Cl)c2)NC(=O)CN(C)C(=O)[C@@H]1Cc1ccc(C(F)(F)F)cc1 [PP0454] ([NMeL]I[NMeA][Aze][NPrPhe(4-CF3)][Sar][hPhe(3-Cl-4-CF3)][Pro(4,4-Me2)][Ac5c][NMeGly(cPent)][NMeD]-Morpholide; lactam N-11) | C (A compound having a KD ratio of 0.1 or more and less than 3 is denoted as C) | C (A compound having a KD ratio of 0.1 or more and less than 3 is denoted as C)
9 | 70 | CCCN1C(=O)[C@@H]2CCN2C(=O)CN(C)C(=O)[C@H]([C@@H](C)CC)NC(=O)[C@H](CC(C)C)N(C)C(=O)C[C@@H](C(=O)N2CCOCC2)N(C)C(=O)[C@H](C2CCCC2)N(C)C(=O)C2(CCCC2)NC(=O)[C@@H]2CC(C)(C)CN2C(=O)[C@H](CCc2ccc(C(F)(F)F)c(Cl)c2)NC(=O)CN(C)C(=O)[C@@H]1Cc1ccc(C(F)(F)F)cc1 [PP0456] ([NMeL]I[Sar][Aze][NPrPhe(4-CF3)][Sar][hPhe(3-Cl-4-CF3)][Pro(4,4-Me2)][Ac5c][NMeGly(cPent)][NMeD]-Morpholide; lactam N-11) | C (A compound having a KD ratio of 0.1 or more and less than 3 is denoted as C) | C (A compound having a KD ratio of 0.1 or more and less than 3 is denoted as C)
